Several values for one entry are separate records, joined by “and”; a condition that tells them apart may be missing. Equal values may be shown once. Read-outs that look alike come from different tables or passages of the source.
Legend:
[1] = biological target: T1, MAO-B (Homo sapiens, UniProt P27338); details: read-out: IC50 MAO-B of earlier chalcone derivative; cited from earlier work
T1 construct: purchased Sigma-Aldrich
T1 sequence (P27338 1-520): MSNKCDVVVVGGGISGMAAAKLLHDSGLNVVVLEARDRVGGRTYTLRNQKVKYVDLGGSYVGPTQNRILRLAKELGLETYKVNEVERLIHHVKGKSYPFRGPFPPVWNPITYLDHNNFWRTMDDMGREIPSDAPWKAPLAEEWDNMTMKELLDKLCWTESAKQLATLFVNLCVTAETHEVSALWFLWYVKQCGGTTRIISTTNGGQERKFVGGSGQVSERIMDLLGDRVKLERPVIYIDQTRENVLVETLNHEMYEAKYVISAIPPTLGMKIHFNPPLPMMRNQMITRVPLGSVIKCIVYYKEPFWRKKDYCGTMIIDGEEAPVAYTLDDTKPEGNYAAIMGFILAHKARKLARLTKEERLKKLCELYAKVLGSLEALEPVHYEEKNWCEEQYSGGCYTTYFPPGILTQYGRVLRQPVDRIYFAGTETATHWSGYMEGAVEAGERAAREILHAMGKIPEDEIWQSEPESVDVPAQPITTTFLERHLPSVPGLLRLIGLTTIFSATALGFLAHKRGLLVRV

[2] = biological target: T1, MAO-B; test: Kinetics of MAO-B inhibition (Lineweaver-Burk and secondary plots); assay type: biochemical; details: for Mode of MAO-B inhibition: Lineweaver-Burk plots; for Ki: competitive inhibition, secondary plots of slopes vs. inhibitor concentration
Method: (§1) AChE inhibitory activities were also determined, except at a concentration of 10 µM. […] Kinetic experiments were carried out at five substrate and three inhibitor concentrations.

[3] = biological target: T1, MAO-B; test: Reversibility of MAO-B inhibition by dialysis; assay type: biochemical; details: for Reversibility of MAO-B inhibition: dialysis method
Text: Relative activities of undialyzed (AU) and dialyzed (AD) samples were used to determine the reversibilities.

[4] = biological target: T2, recombinant hMAO-A (Homo sapiens, UniProt P21397); test: MAO-A inhibition assay (kynuramine substrate); assay type: biochemical; details: for remaining activity at 1 µM: compound at 1.0 µM, mean ± standard error of duplicate experiments, read-out: Residual Activity (%) MAO-A (1.0 µM); for IC50: mean ± standard error of duplicates, reference compounds after 30 min preincubation with enzyme
T2 construct: purchased Sigma-Aldrich
T2 sequence (P21397 1-527): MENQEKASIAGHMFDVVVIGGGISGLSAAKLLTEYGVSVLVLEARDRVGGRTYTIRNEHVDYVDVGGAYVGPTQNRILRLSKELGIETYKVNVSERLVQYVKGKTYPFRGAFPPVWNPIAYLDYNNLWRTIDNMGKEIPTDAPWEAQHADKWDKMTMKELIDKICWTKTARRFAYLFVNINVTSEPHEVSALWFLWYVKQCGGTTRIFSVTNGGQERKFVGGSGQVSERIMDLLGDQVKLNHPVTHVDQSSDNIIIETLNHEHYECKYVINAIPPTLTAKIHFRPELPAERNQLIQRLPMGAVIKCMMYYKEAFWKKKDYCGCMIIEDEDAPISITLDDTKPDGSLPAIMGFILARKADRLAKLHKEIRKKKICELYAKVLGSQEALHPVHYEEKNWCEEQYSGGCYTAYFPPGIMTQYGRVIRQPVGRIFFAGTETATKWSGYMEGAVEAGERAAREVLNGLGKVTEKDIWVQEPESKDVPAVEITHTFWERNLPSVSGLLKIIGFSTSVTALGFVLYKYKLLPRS
Method: (§2) Recombinant hMAO-A and hMAO-B activities were assayed while using kynuramine (0.06 mM) and benzylamine (0.3 mM) as substrates, respectively, as described previously. […] AChE activity was measured using Type VI-S from Electrophorus electricus in the presence of 0.5 mM 5,5’-dithiobis(2-nitrobenzoic acid) and 0.5 mM acetylthiocholine iodide, as described previously. Enzymes and chemicals were purchased from Sigma–Aldrich (St. Louis, MO, USA).
as §1

[5] = biological target: T1, MAO-B; test: biochemical; details: for SI (selectivity index, ratio of IC50 MAO-A to MAO-B): MAO-A vs. MAO-B IC50 ratio; for IC50: mean ± standard error of duplicates, reference compounds after 30 min preincubation with enzyme, read-out: IC50 (µM) MAO-B; for remaining activity at 1 µM: read-out: Residual Activity (%) MAO-B (1.0 µM)
Method: as §2, with “USA). […]” for “USA).”

[6] = biological target: T3, AChE (Type VI-S from Electrophorus electricus) (Electrophorus electricus, UniProt O42275); test: AChE inhibition assay (DTNB / acetylthiocholine iodide); assay type: biochemical; details: for remaining activity at 10 µM: compound at 10 µM, mean ± standard error of duplicate experiments, read-out: Residual Activity (%) AChE (10 µM)
T3 construct: purchased Sigma-Aldrich Type VI-S
Method: AChE activity was measured using Type VI-S from Electrophorus electricus in the presence of 0.5 mM 5,5’-dithiobis(2-nitrobenzoic acid) and 0.5 mM acetylthiocholine iodide, as described previously. Enzymes and chemicals were purchased from Sigma–Aldrich (St. Louis, MO, USA).
Kinetic experiments were carried out at five substrate and three inhibitor concentrations.

T3 sequence (O42275 24-633): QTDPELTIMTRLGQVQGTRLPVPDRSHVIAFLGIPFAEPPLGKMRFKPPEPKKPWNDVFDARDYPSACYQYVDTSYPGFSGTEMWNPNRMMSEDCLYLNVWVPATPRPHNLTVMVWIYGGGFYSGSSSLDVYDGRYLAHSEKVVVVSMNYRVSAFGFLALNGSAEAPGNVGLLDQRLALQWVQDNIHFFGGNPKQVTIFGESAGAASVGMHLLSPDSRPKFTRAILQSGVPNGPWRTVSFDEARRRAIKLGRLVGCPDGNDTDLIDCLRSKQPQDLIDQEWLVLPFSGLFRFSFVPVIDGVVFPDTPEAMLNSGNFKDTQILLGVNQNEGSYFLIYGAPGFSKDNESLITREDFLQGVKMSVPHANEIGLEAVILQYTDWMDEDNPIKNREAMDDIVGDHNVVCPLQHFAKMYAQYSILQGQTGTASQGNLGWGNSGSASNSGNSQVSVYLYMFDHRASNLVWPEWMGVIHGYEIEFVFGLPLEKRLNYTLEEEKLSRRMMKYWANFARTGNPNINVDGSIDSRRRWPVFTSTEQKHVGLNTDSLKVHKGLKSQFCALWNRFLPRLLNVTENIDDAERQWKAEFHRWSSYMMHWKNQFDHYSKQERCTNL

| SMILES | IC50 [1] [nM] | Mode of MAO-B inhibition [2] | Ki [2] [nM] | Reversibility of MAO-B inhibition [3] | Relative MAO-B activity, dialyzed (AD) ([3]; ~2 × IC50 of inhibitor, 30 min preincubation, after dialysis) [%] | Relative MAO-B activity, undialyzed (AU) ([3]; ~2 × IC50 of inhibitor, 30 min preincubation, undialyzed) [%] | remaining activity at 1 µM [4] [%] | IC50 [4] [µM] | MAO-B potency relative to clorgyline (times more potent) [5] | MAO-B potency relative to lazabemide (times more potent) [5] | MAO-B potency relative to pargyline (times more potent) [5] [times] | SI (selectivity index, ratio of IC50 MAO-A to MAO-B) [5] | IC50 [5] | remaining activity at 1 µM [5] [%] | IC50 [6] [nM] | remaining activity at 10 µM [6] [%] |
| --- | --- | --- | --- | --- | --- | --- | --- | --- | --- | --- | --- | --- | --- | --- | --- | --- |
| CCO/C(C)=N/Oc1ccc(/C=C/C(=O)c2ccc(F)cc2)cc1 [L3, ethyl (1E)-N-{4-[(1E)-3-(4-fluorophenyl)-3-oxoprop-1-en-1-yl]phenoxy}ethanimidate] | 53 |  |  |  |  |  |  |  |  |  |  |  |  |  |  |  |
| O=C(/C=C/c1ccc(ON=C2CCCCC2)cc1)c1ccc(F)cc1 [COE-6] |  | competitively inhibited | 7.5 | reversible inhibitors | 81.1 | 19.7 | 76.8 ± 3.98 | 4 ± 0.021 | 105.6 times and 105 times | 2.33 times and 2.3 times | 1.1 | 222.2 | 0.02 µM and 0.018 µM | -1.06 ± 1.84 | > 40000 | 79.4 ± 3.97 |
| COc1ccc(/C=C/C(=N/Oc2ccc(/C=C/C(=O)c3ccc(F)cc3)cc2)c2ccc(OC)cc2)cc1 [COE-22] |  | competitively inhibited | 10 | reversible inhibitors |  |  | 81.8 ± 0.99 |  |  |  |  |  | 0.028 ± 0.0042 µM | 5.47 ± 0.21 |  | < 50 |
| COC(=O)c1ccc(O/N=C(/C=C/c2ccc(OC)cc2)c2ccc(OC)cc2)cc1 [COE-18] |  |  |  |  |  |  | 88.1 ± 0.99 | > 10 |  |  |  | >11.8 | 0.85 ± 0.12 µM | 33.3 ± 0.52 | 10600 ± 260 | 58.3 ± 5.3 |
| COc1ccc(/C=C/C(=O)c2ccc(O/N=C(\C)c3cccc4ccccc34)cc2)cc1OC [COE-14] |  |  |  |  |  |  | 91.1 ± 3.84 | > 10 |  |  |  | >6.3 | 1.58 ± 0.031 µM | 63.7 ± 1.39 | 13200 ± 840 | 62.2 ± 4.19 |
